Reference: patent publication US11279733B2, “Peptide antibiotics” (priority 2017, dated 2022)
Converted amounts (≈) assume the structure as drawn. Read-outs that look alike come from different tables or passages of the source. Positions of bridges follow the written chain, without caps; N, C: chain ends. Non-standard residues stand in square brackets, D forms with d. Residues, ends and D or L forms follow the SMILES beside them. *: point of attachment. Decanoyl(3R-OH) = CCCCCCC[C@@H](O)CC(=O)*; Butanoyl(4-OPh) = O=C(CCCOc1ccccc1)*; dDab = NCC[C@@H](N)C(=O)O; Dab = NCC[C@H](N)C(=O)O; Dap = NC[C@H](N)C(=O)O; X5 = O=C(CCCCCCCO)*

How the values were obtained:
[1] = Cytotoxicity, resazurin assay, HEK293; settings: human
How it was run: (§1)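 Viability is measured by resazurin reduction (5 μM, 2 h, 37 °C) after cells seeded at 4000 per well are treated with compound for 24 h.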

[2] = system: K. pneumoniae GN_106, PmxR
How it was run: (§2)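 Mid-log cultures grown in Mueller Hinton broth at 37° C were tested by 2-fold broth microdilution at 5×10^5 CFU/mL final. Compounds were dissolved in water and tested over a final range of 32 to 0.015 μg/mL.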

[3] = system: P. aeruginosa ATCC 27853
How it was run: as §2

[4] = system: E. coli ATCC 25922
How it was run: as §2

[5] = system: P. aeruginosa GN_105, PmxR
How it was run: as §2

[6] = system: K. pneumoniae ATCC 700603, MDR
How it was run: as §2

[7] = system: K. pneumoniae ATCC 13883
How it was run: as §2

[8] = system: A. baumannii ATCC 19606
How it was run: as §2

[9] = system: K. pneumoniae ATCC BAA-2146, NDM-1 pos
How it was run: as §2

[10] = system: P. aeruginosa GN_043, PmxR
How it was run: as §2

[11] = system: A. baumannii GN_093 PmxR
How it was run: as §2

[12] = system: S. aureus ATCC 25923, MSSA
How it was run: as §2

[13] = system: K. pneumoniae GN_102 PmxR
How it was run: as §2

[14] = Cytotoxicity, resazurin assay, HepG2; settings: human
How it was run: as §1

[15] = Cytotoxicity, HK2 LDH assay; settings: human
How it was run: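 HK2 cells were seeded at 2000 per well in DMEM/F12 with 10% FBS and left to attach for 24 h at 37 °C, 5% CO2. They were then exposed for 24 h to 3-fold peptide dilutions starting from 600 μM solutions in quadruplicate. LDH release was read at 450 nm, and CC50 was fitted from dose-response curves.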

Compound	CC50 at 24 h [1] [µM]	MIC P. aeruginosa GN_043, PmxR ([10]; P. aeruginosa GN_043, PmxR) [µg/mL]	CC50 at 24 h [14] [µM]	CC50 at 24 h [15] [µM]	MIC K. pneumoniae GN_106, PmxR ([2]; GN 106, PmxR) [µg/mL]	MIC P. aeruginosa ATCC 27853 ([3]; ATCC 27853) [µg/mL]	MIC E. coli ATCC 25922 ([4]; ATCC 25922) [µg/mL]	MIC P. aeruginosa GN_105, PmxR ([5]; GN 105, PmxR) [µg/mL]	MIC K. pneumoniae ATCC 700603, MDR ([6]; ATCC 700603) [µg/mL]	MIC K. pneumoniae ATCC 13883 ([7]; ATCC 13883) [µg/mL]	MIC A. baumannii ATCC 19606 ([8]; ATCC 19606) [µg/mL]	MIC K. pneumoniae ATCC BAA-2146, NDM-1 pos ([9]; ATCC BAA-2146) [µg/mL]	MIC A. baumannii GN_093 PmxR ([11]; GN 093 PmxR) [µg/mL]	MIC S. aureus ATCC 25923, MSSA ([12]; ATCC 25923) [µg/mL]	MIC K. pneumoniae GN_102 PmxR ([13]; GN 102 PmxR) [µg/mL]	further results
CC(C)C[C@@H]1NC(=O)[C@H](CCN)NC(=O)[C@H](CCN)NC(=O)[C@H](Cc2ccccc2)NC(=O)[C@@H](CC(C)C)NC(=O)[C@H](CCN)NC(=O)[C@@H](NC(=O)[C@@H](CCN)NC(=O)CCCCCCCO)CCNC1=O [compound 6514, 8OH-nC7CO-D-Dab-cyc[L-Dab-L-Dab-D-Leu-L-Phe-L-Dab-L-Dab-L-Leu]] (X5-[dDab][Dab][Dab][dL]F[Dab][Dab]L; lactam 2-C)	> 300	4 (≈ 3.94 µM)	> 300	> 300												MIC K. pneumoniae GN_106, PmxR ([2]; K. pneumoniae GN_106, PmxR): >32 µg/mL; MIC P. aeruginosa ATCC 27853 ([3]; P. aeruginosa ATCC 27853): 8 µg/mL (≈ 7.87 µM); MIC E. coli ATCC 25922 ([4]; E. coli ATCC 25922): >32 µg/mL; MIC P. aeruginosa GN_105, PmxR ([5]; P. aeruginosa GN_105, PmxR): >32 µg/mL; MIC K. pneumoniae ATCC 700603, MDR ([6]; K. pneumoniae ATCC 700603, MDR): >32 µg/mL; MIC K. pneumoniae ATCC 13883 ([7]; K. pneumoniae ATCC 13883): >32 µg/mL; MIC A. baumannii ATCC 19606 ([8]; A. baumannii ATCC 19606): >32 µg/mL; MIC K. pneumoniae ATCC BAA-2146, NDM-1 pos ([9]; K. pneumoniae ATCC BAA-2146, NDM-1 pos): >32 µg/mL; MIC A. baumannii GN_093 PmxR ([11]; A. baumannii GN_093 PmxR): >32 µg/mL; MIC S. aureus ATCC 25923, MSSA ([12]; S. aureus ATCC 25923, MSSA): >32 µg/mL; MIC K. pneumoniae GN_102 PmxR ([13]; K. pneumoniae GN_102 PmxR): >32 µg/mL
CCCCCCC[C@@H](O)CC(=O)N[C@H](CCN)C(=O)N[C@H]1CCNC(=O)[C@H](CC(C)C)NC(=O)[C@H](CCN)NC(=O)[C@H](CCN)NC(=O)[C@H](CC(C)C)NC(=O)[C@@H](Cc2ccc(O)cc2)NC(=O)[C@H](CCN)NC1=O [compound 5008, 3(R)OH-nC9CO-D-Dab-cyc[L-Dab-L-Dab-D-Tyr-L-Leu-L-Dab-L-Dab-L-Leu]] ({Decanoyl(3R-OH)}-[dDab][Dab][Dab][dY]L[Dab][Dab]L; lactam 2-C)	> 300	2 (≈ 1.89 µM)	> 300	106	16 (≈ 15.1 µM)	1 (≈ 0.943 µM)	8 (≈ 7.54 µM)	16 (≈ 15.1 µM)	8 (≈ 7.54 µM)	16 (≈ 15.1 µM)	32 (≈ 30.2 µM)	16 (≈ 15.1 µM)	32 (≈ 30.2 µM)	32 (≈ 30.2 µM)	16 (≈ 15.1 µM)	
CCCCCCC[C@@H](O)CC(=O)N[C@H](CCN)C(=O)N[C@H]1CNC(=O)[C@H](CC(C)C)NC(=O)[C@H](CCN)NC(=O)[C@H](CCN)NC(=O)[C@H](CC(C)C)NC(=O)[C@@H](CC(C)C)NC(=O)[C@H](CCN)NC1=O [compound 633, 3(R)OH-nC9CO-D-Dab-cyc[L-Dap-L-Dab-D-Leu-L-Leu-L-Dab-L-Dab-L-Leu]] ({Decanoyl(3R-OH)}-[dDab][Dap][Dab][dL]L[Dab][Dab]L; lactam 2-C)	> 300	16 (≈ 16.1 µM)	> 300	104	>32	1 (≈ 1 µM)	16 (≈ 16.1 µM)	>32	32 (≈ 32.1 µM)	>32	>32	8 (≈ 8.03 µM)	>32	>32	>32	
CC(C)C[C@@H]1NC(=O)[C@H](CCN)NC(=O)[C@H](CCN)NC(=O)[C@H](CC(C)C)NC(=O)[C@@H](Cc2ccccc2)NC(=O)[C@H](CCN)NC(=O)[C@@H](NC(=O)[C@@H](CCN)NC(=O)CCCOc2ccccc2)CCNC1=O [compound 6529, 4-phenoxybutanoic acid-D-Dab-cyc[L-Dab-L-Dab-D-Phe-L-Leu-L-Dab-L-Dab-L-Leu]] ({Butanoyl(4-OPh)}-[dDab][Dab][Dab][dF]L[Dab][Dab]L; lactam 2-C)	> 300		> 300	199	>32	2 (≈ 1.93 µM)	8 (≈ 7.72 µM)	16 (≈ 15.4 µM)	32 (≈ 30.9 µM)	16 (≈ 15.4 µM)	>32	32 (≈ 30.9 µM)	>32	>32	>32	MIC P. aeruginosa GN_043, PmxR [10]: 1 µg/mL (≈ 0.965 µM)
